Source: patent US5358947A, “Angiotensin II receptor blocking 2,3-substituted pyrazolo[1,5-a]-1,3,5-triazin-4(3H)-ones” (American Cyanamid Company, priority 1993, dated 1994)
Values joined by “and” are separate entries in the source; they are usually repeats but may differ in a detail not shown here. Equal entries are not always repeated.

Test system: ANGIOTENSIN II (AII) VASOPRESSOR RESPONSE
Test: AII Challenge: angiotensin II (AII) vasopressor response in conscious rats
Format: in vivo
Design: Response After AII / Change / Average Change: unit not given here
Conditions: for Response After AII / Change / Control Before AII: individual rat; for Control Before AII: in mmHg (unit assumed); for % Inhibition / Average Change: n = 2
Summary of the method: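 Conscious male Okamoto-Aoki SHR (16-20 weeks, ~330 g), aorta/vena cava cannulated, challenged with AII 0.05 and 0.1 ug/kg i.v. before and at 30-300 min after compound dosed i.v., i.p. or orally. Systolic pressure rise expressed relative to each rat's predose response (100%).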

[1] = 10 mg/kg i.v., AII 0.05 mcg/kg, 30 min post dose
[2] = 10 mg/kg i.v., AII 0.05 mcg/kg, 30 min post dose, listed as Ex. 20
[3] = 10 mg/kg i.v., AII 0.1 mcg/kg, 30 min post dose, listed as Ex. 20
[4] = 10 mg/kg i.v., AII 0.1 mcg/kg, 30 min post dose
[5] = 20 mg/kg i.v., AII 0.05 mcg/kg, 60 min post dose
[6] = 20 mg/kg i.v., AII 0.05 mcg/kg, 60 min post dose, listed as Ex. 20
[7] = 20 mg/kg i.v., AII 0.05 mcg/kg, 90 min post dose
[8] = 20 mg/kg i.v., AII 0.05 mcg/kg, 90 min post dose, listed as Ex. 20
[9] = 20 mg/kg i.v., AII 0.05 mcg/kg, 120 min post dose
[10] = 20 mg/kg i.v., AII 0.05 mcg/kg, 120 min post dose, listed as Ex. 20
[11] = 20 mg/kg i.v., AII 0.05 mcg/kg, 180 min post dose
[12] = 20 mg/kg i.v., AII 0.05 mcg/kg, 180 min post dose, listed as Ex. 20
[13] = 20 mg/kg i.v., AII 0.05 mcg/kg, 240 min post dose
[14] = 20 mg/kg i.v., AII 0.05 mcg/kg, 240 min post dose, listed as Ex. 20
[15] = 20 mg/kg i.v., AII 0.05 mcg/kg, 300 min post dose, listed as Ex. 20
[16] = 20 mg/kg i.v., AII 0.05 mcg/kg, 300 min post dose
[17] = 20 mg/kg i.v., AII 0.1 mcg/kg, 60 min post dose
[18] = 20 mg/kg i.v., AII 0.1 mcg/kg, 60 min post dose, listed as Ex. 20
[19] = 20 mg/kg i.v., AII 0.1 mcg/kg, 90 min post dose
[20] = 20 mg/kg i.v., AII 0.1 mcg/kg, 90 min post dose, listed as Ex. 20
[21] = 20 mg/kg i.v., AII 0.1 mcg/kg, 120 min post dose
[22] = 20 mg/kg i.v., AII 0.1 mcg/kg, 120 min post dose, listed as Ex. 20
[23] = 20 mg/kg i.v., AII 0.1 mcg/kg, 180 min post dose
[24] = 20 mg/kg i.v., AII 0.1 mcg/kg, 180 min post dose, listed as Ex. 20
[25] = 20 mg/kg i.v., AII 0.1 mcg/kg, 240 min post dose, listed as Ex. 20
[26] = 20 mg/kg i.v., AII 0.1 mcg/kg, 240 min post dose
[27] = 20 mg/kg i.v., AII 0.1 mcg/kg, 300 min post dose, listed as Ex. 20
[28] = 20 mg/kg i.v., AII 0.1 mcg/kg, 300 min post dose

CCCCc1nc2c(Br)cnn2c(=O)n1Cc1ccc(-c2ccccc2-c2nn[nH]n2)cc1 [Example 20]
Response After AII [1]: 245
Change [2]: 38 and 15
Response After AII [2]: 215
Control Before AII [2]: 207 and 200
% Inhibition [1]: 34%
Average Change [1]: 26.5
Change [3]: 45 and 35
Response After AII [3]: 260 and 235
Control Before AII [3]: 215 and 200
% Inhibition [4]: 36%
Average Change [4]: 40
Change [5]: 20
Response After AII [5]: 200
Response After AII [6]: 215
Control Before AII [6]: 195 and 180
% Inhibition [5]: 50%
Average Change [5]: 20
Response After AII [7]: 200
Change [8]: 10 and 25
Response After AII [8]: 225
Control Before AII [8]: 215 and 175
% Inhibition [7]: 56%
Average Change [7]: 17.5
Response After AII [9]: 250
Change [10]: 45 and 20
Response After AII [10]: 215
Control Before AII [10]: 205 and 195
% Inhibition [9]: 19%
Average Change [9]: 32.5
Response After AII [11]: 210
Control Before AII [11]: 185
Change [12]: 40 and 25
Response After AII [12]: 225
% Inhibition [11]: 19%
Average Change [11]: 32.5
Response After AII [13]: 230
Control Before AII [13]: 185
Change [14]: 45 and 40
Response After AII [14]: 225
% Inhibition [13]: -6%
Average Change [13]: 42.5
Change [15]: 50 and 35
Response After AII [15]: 240 and 235
Control Before AII [15]: 190 and 200
% Inhibition [16]: -6%
Average Change [16]: 42.5
Response After AII [17]: 200
Change [18]: 15 and 20
Response After AII [18]: 215
Control Before AII [18]: 200 and 180
% Inhibition [17]: 72%
Average Change [17]: 17.5
Response After AII [19]: 245
Change [20]: 40 and 30
Response After AII [20]: 215
Control Before AII [20]: 205 and 185
% Inhibition [19]: 44%
Average Change [19]: 35
Response After AII [21]: 250
Change [22]: 35 and 20
Response After AII [22]: 215
Control Before AII [22]: 215 and 195
% Inhibition [21]: 56%
Average Change [21]: 27.5
Response After AII [23]: 225
Change [24]: 30 and 60
Control Before AII [24]: 195 and 165
% Inhibition [23]: 28%
Average Change [23]: 45
Change [25]: 60 and 55
Response After AII [25]: 260 and 245
Control Before AII [25]: 200 and 190
% Inhibition [26]: 8%
Average Change [26]: 57.5
Change [27]: 45 and 55
Response After AII [27]: 265 and 245
Control Before AII [27]: 220 and 190
% Inhibition [28]: 20%
Average Change [28]: 50
